US20030216361A1, “Therapeutic compositions effective against gram positive bacteria” (priority 2000, published 2003)
≈ marks a conversion by molar mass, not a printed value. Where “and” joins values, the source holds several entries; their conditions need not be identical. Equal entries are not always repeated. Where two headings read alike, the source gives them in different places. Marks after values point to notes of the source that are not given here.

Assays:
[1] = test system: Vancomycin-resistant E. faecalis; assay: Broth macrodilution MIC and MBC, clinical isolates; conditions: 2 strains
[2] = test system: Candida albicans ATCC 90028; assay: Disk diffusion susceptibility testing
[3] = test system: Enterococcus faecalis 29212; assay: Time-kill studies; type: cell-based; conditions: E. faecalis
Description: (§1) This experiment illustrates a study of the time required (time-kill studies) for anti-microbial action of 3β-acetoxy-17β-(L-prolyl) amino-5α-androstane with certain gram positive bacteria.
(§2) Overnight cultures of Staphylococcus aureus 29213, Enterococcus faecalis 29212 and S. pneumoniae 6303 in MHII broth were inoculated into the same medium containing multiples of the broth macrodilution MIC of 3β-acetoxy-17β-(L-prolyl) amino-5α-androstane, or an equivalent volume of MeOH. Cultures were shaken at 37° C., and aliquots were aseptically removed at various times for dilution plating. Standard errors of the means were calculated from at least two experiments. The detection limit in these experiments was 10 CFU/ml.

[4] = test system: Staphylococcus aureus 29213; assay: Time-kill studies; type: cell-based; conditions: S. aureus
Description: as §1, §2

[5] = test system: Enterobacter cloacae ATCC 13047; assay: Disk diffusion susceptibility testing
[6] = test system: Bacillus subtilis Presque Isle 620; assay: Effect of pH on broth macrodilution MICs; type: cell-based
[7] = test system: Klebsiella pneumoniae Presque Isle 344; assay: Disk diffusion susceptibility testing
[8] = test system: Listeria monocytogenes; assay: Broth macrodilution MIC and MBC, clinical isolates; conditions: 3 strains
[9] = test system: Enterococcus faecalis ATCC 29212; assay: Disk diffusion susceptibility testing
[10] = test system: Escherichia coli ATCC 25922; assay: Disk diffusion susceptibility testing
[11] = test system: ATCC 14154, mouse virulent Staphylococcus aureus; assay: Mouse model of topical Gram positive (Staphylococcus aureus) infection, infected suture; type: in vivo; conditions: mice; for Total colonies (number of Staph colonies per suture), individual animals: animals 1-10; for Total colonies (number of Staph colonies per suture), Ave.: average of 10 animals
Experimental: The model, as described in J. Gisby and J. Bryant, Antimicrobial Agents and Chemotherapy, February 2000, Vol. 44, No. 2, p 255-260, was used.
Fifty HSD:ICR male mice weighing 12-14 grams were ordered and allowed to acclimate 7 days. Mice were allocated to 5 groups of 10 animals each.
Group 1: infected suture placed, no treatment
Group 2: topical GRPB, 12.5 mg/kg BID×7 days
Group 3: topical GRPB, 25 mg/kg BID×7 days
Group 4: clean suture, no treatment
Group 5: enrofloxacin (Baytril) 10 mg/kg SQ SID×7 days
ATCC 14154, mouse virulent Staphylococcus aureus was grown in BHI broth overnight (12 hours) at 38 degrees C. Forty-five minutes prior to surgery, silk suture (2-0 size, 1 cm lengths w/swaged-on blunt needle) was soaked in the broth for 30 minutes, excess liquid was then removed by blotting with filter paper.
Mice were anesthetized with a ketamine (40 mg/kg), midazolam (2 mg/kg), and butorphanol (0.1 mg/kg) as a single IP injection.
The skin on the back of the mouse was prepared for aseptic surgery by clipping, cleansing with iodine scrub, and rinsing with alcohol. Mice were kept warm during surgery on a recirculating hot water blanket.
The suture was placed just under the skin on the dorsum of the animal using sterile instruments. The suture was knotted in the subcutaneous tissue to keep it in place. A half-thickness skin wound was made over the suture using the side of an 18 gauge needle as a scalpel.
Mice were allowed to recover in the home cage.
GRPB-10-15A was reconstituted as directed, using a minimal amount of methanol followed by dilution to required volume in sterile physiologic saline.
Injections were given using insulin syringes with 30 gauge needles. Topical administration was placed over the wound site. The mice were first treated 4 hours after surgery and were treated once or twice daily thereafter.
After 7 days of treatment animals were euthanized with IP pentobarbital euthanasia solution. The suture lengths were removed and placed in 2 mls phosphate buffered saline. Serial dilutions were performed and results reported as actual counts (number of Staph colonies per suture).

[12] = test system: Rhodococcus spp.; assay: Broth macrodilution MIC and MBC, clinical isolates
[13] = test system: Corynebacterium diphtheriae; assay: Broth macrodilution MIC and MBC, clinical isolates; conditions: 3 strains
[14] = test system: Corynebacterium diphtheriae, clinical isolate; assay: Effect of pH on broth macrodilution MICs; type: cell-based
[15] = test system: Vancomycin-resistant Enterococcus faecalis, clinical isolate; assay: Effect of pH on broth macrodilution MICs; type: cell-based
[16] = test system: Group A Streptococcus; assay: Broth macrodilution MIC and MBC, clinical isolates
[17] = test system: Gordona bronchialis; assay: Broth macrodilution MIC and MBC, clinical isolates; conditions: clinical isolate, 1 strain
[18] = test system: Bacillus subtilis Presque Isle 620; assay: Broth macrodilution MIC and MBC, reference strains
[19] = test system: Corynebacterium hoagi ATCC 7005; assay: Broth macrodilution MIC and MBC, reference strains; conditions: ATCC7005
[20] = test system: Cryptococcus neoformans ATCC 90112; assay: Disk diffusion susceptibility testing
[21] = pH 6, range of 3 determinations
[22] = pH 7, range of 3 determinations
[23] = pH 8, range of 3 determinations
[24] = Group 2 low GRPB, topical 12.5 mg/kg BID×7 days
[25] = Group 3 high GRPB, topical 25 mg/kg BID×7 days

Compound: CC(=O)O[C@H]1CC[C@@]2(C)[C@@H](CC[C@@H]3[C@@H]2CC[C@]2(C)[C@@H](NC(=O)[C@@H]4CCCN4)CC[C@@H]32)C1
- MBC Range [1]: 16 to 64 µg/mL
- MIC Range [1]: 8 to 16 µg/mL
- MIC [2]: >100 μg/disk
- Killing (time dependence) [3]: time-dependent
- time to 99.9% kill ([3]; eight times the MIC): 4 h
- survivors after 24 h ([3]; eight times the MIC): no survivors
- time to 99.9% kill ([3]; four times the MIC): 8 h
- survivors after 24 h ([3]; four times the MIC): no survivors
- time to 99.9% kill ([3]; two times the MIC): 8 h
- Killing (time dependence) [4]: time-dependent
- MIC [5]: >100 μg/disk
- MIC Range [6, 21]: 8 µg/mL (≈ 18.6 µM)
- MIC Range [6, 22]: 4 to 8 µg/mL
- MIC Range [6, 23]: 4 to 8 µg/mL
- MIC [7]: >100 μg/disk
- MBC Range [8]: 32 to 64 µg/mL
- MIC Range [8]: 16 to 32 µg/mL
- MIC [9]: 25-50 μg/disk
- MIC [10]: >100 μg/disk
- Total colonies (number of Staph colonies per suture), individual animals [11, 24]: 227 colonies per suture and 1993 colonies per suture and 832 colonies per suture and 317 colonies per suture and 1174 colonies per suture and 399 colonies per suture and 2523 colonies per suture and 968 colonies per suture and 739 colonies per suture and 1109 colonies per suture
- Total colonies (number of Staph colonies per suture), Ave. [11, 24]: 1028 colonies per suture
- Total colonies (number of Staph colonies per suture), individual animals [11, 25]: 890* colonies per suture and 328 colonies per suture and 483 colonies per suture and 289 colonies per suture and 626 colonies per suture and 572 colonies per suture and 456 colonies per suture and 344 colonies per suture and 565 colonies per suture and 362 colonies per suture
- Total colonies (number of Staph colonies per suture), Ave. [11, 25]: 492 colonies per suture
- MIC50 ([12]; Rhodococcus): 8 µg/mL (≈ 18.6 µM)
- MIC90 ([12]; Rhodococcus): 16 µg/mL (≈ 37.2 µM)
- share of strains with MBC/MIC ratios ≦2 ([12]; Rhodococcus spp.): 58%
- MBC ([12]; Rhodococcus, read-out: MBC 50%): 16 µg/mL (≈ 37.2 µM)
- MBC ([12]; Rhodococcus, read-out: MBC 90%): 32 µg/mL (≈ 74.3 µM)
- MIC Range ([12]; clinical isolates, 19 strains, read after 48 h): 4 to 64 µg/mL
- MBC Range [13]: 8 µg/mL (≈ 18.6 µM)
- MIC Range [13]: 4 to 8 µg/mL
- MIC Range [14, 21]: 16 µg/mL (≈ 37.2 µM)
- MIC Range [14, 22]: 4 to 8 µg/mL
- MIC Range [14, 23]: 2 to 4 µg/mL
- MIC Range [15, 21]: 32 µg/mL (≈ 74.3 µM)
- MIC Range [15, 22]: 8 µg/mL (≈ 18.6 µM)
- MIC Range [15, 23]: 4 to 8 µg/mL
- share of strains with MBC/MIC ratios ≦2 ([16]; Group A Streptococcus): 89%
- MIC50 ([16]; Streptococcus): 8 µg/mL (≈ 18.6 µM)
- MIC90 ([16]; Streptococcus): 16 µg/mL (≈ 37.2 µM)
- MBC ([16]; Streptococcus, read-out: MBC 50%): 16 µg/mL (≈ 37.2 µM)
- MBC ([16]; Streptococcus, read-out: MBC 90%): 32 µg/mL (≈ 74.3 µM)
- MBC Range ([16]; clinical isolates, 18 strains): 8 to 32 µg/mL
- MIC Range ([16]; clinical isolates, 18 strains): 8 to 16 µg/mL
- MBC Range [17]: 8 µg/mL (≈ 18.6 µM)
- MIC Range [17]: 8 µg/mL (≈ 18.6 µM)
- MBC [18]: 4 µg/mL (≈ 9.29 µM)
- MIC [18]: 4 µg/mL (≈ 9.29 µM)
- MBC [19]: 32 µg/mL (≈ 74.3 µM)
- MIC [19]: 8 µg/mL (≈ 18.6 µM)
- MIC [20]: >100 μg/disk
